According to publication PMC8482815, “Targeting Host Glycolysis as a Strategy for Antimalarial Development” (Frontiers in Cellular and Infection Microbiology, 2021):
“Also recorded” adds a separate entry of the source. Where two headings read alike, the source gives them in different places.

How the values were obtained:
P. falciparum strain 3D7 = assay: Plasmodium falciparum growth inhibition assay (Picogreen DNA content, three-day incubation); format: cell-based; conditions: for S.I. + pyruvate (Supplemental Table 4): MetHb EC50 / parasite EC50, with pyruvate; for S.I. - pyruvate (Supplemental Table 4): MetHb EC50 / parasite EC50, without pyruvate; for EC50: Plasmodium falciparum; for S.I. Fold Change (Supplemental Table 4): change in S.I. with versus without pyruvate; for T.I. Fold change: change in T.I. with versus without 1mM pyruvate; for T.I. + pyruvate / T.I. - pyruvate: therapeutic index = [EC50 for MetHb formation]/[EC50 for parasite growth inhibition]; for T.I. + pyruvate: with 1mM pyruvate; for T.I. - pyruvate: without pyruvate
Protocol: (§1) Banked blood (Saint Louis Children’s Hospital) and fresh blood [healthy donors] was washed and stored at 50% hematocrit at 4°C up to 1 month past the clinical expiration date and collection date, respectively. Parasite strains provided by the Malaria Research and Reference Reagent Resource Center (MR4) as follows: 3D7 (MRA-102); K1 (MRA-159); D10 (MRA-201); and IPC-5202 (MRA-1240). Unless indicated, erythrocytes were cultured as previously described at 2% hematocrit in complete media (incomplete media supplemented with 27mM sodium bicarbonate, 11mM glucose, 5mM HEPES, 1mM sodium pyruvate, 0.37mM hypoxanthine, 0.01mM thymidine, 10µg/mL gentamicin, and 0.5% Albumax I (Thermo-Fisher) under 5% O2/5% CO2/90% N2 atmosphere at 37°C ([Guggisberg et al., 2014]).
Asynchronous cultures diluted to 1% parasitemia in 100μL wells were subjected to drug dilutions, solvent controls, and untreated uninfected erythrocyte controls in technical duplicates. Following a three-day incubation, DNA content was quantified using Picogreen (Life Technologies), as previously described ([Corbett et al., 2004]). Half-maximal effective concentrations (EC50) were determined from nonlinear regression of three biological replicates (GraphPad Prism).

human erythrocytes = assay: Detection and quantification of MetHb formation in cultured erythrocytes; format: cell-based; conditions: Homo sapiens, Erythrocyte
Protocol: as §1
MetHb was detected by measuring absorbance in the 630-640nm range, which is specific from other hemoglobin subforms (oxyhemoglobin, deoxyhemoglobin, and carboxyhemoglobin). Supernatants were removed and erythrocyte pellets were fully lysed and diluted, as described above. The absorption peak for oxyhemoglobin (575nm) and MetHb (630nm) were measured and the EC50 of MetHb formation was determined using non-linear regression analysis (GraphPad Prism).

P. berghei ANKA = format: in vivo, Swiss Webster mice
Protocol: (§2) Groups of five female Swiss-Webster mice were injected intraperitoneally (i.p.) with 10^3 luciferase-expressing P. berghei ANKA parasites ([Franke-Fayard et al., 2008]). Forty-eight hours post infection, mice were injected i.p. daily for five days with either 200µL of 2% methylcellulose/0.5% Tween80, 40mg/kg chloroquine, 100mg/kg HEX, 30mg/kg POM-HEX, or 5mg/kg POM-SF. Enolase inhibitors dosing were selected as approximately 3-fold lower than the maximum acutely tolerated dose for each compound by i.p. injection. Day 7 post-infection, mice were injected with 150mg/kg D-luciferin potassium salt in PBS (GoldBio) and imaged on an IVIS 100 and parasite burden assessed (Xenogen LivingImage).
The glucose mimetic 2-DG and enolase inhibitors POM-HEX, and HEX were evaluated in the P. berghei mouse model of cerebral malarial, as previously described ([Wang et al., 2018]). Briefly, in addition to groups of mice (n = 5) dosed as described above for POM-HEX and HEX, 2-DG was administered to an additional group (n = 5) at 200mg/kg twice daily and all were monitored for survival, parasitemia (blood smear Giemsa), and clinical signs of cerebral malaria (paralysis, deviation of the head, ataxia, convulsions, and coma) over 15 days.

[1] = Pharmacokinetics of HEX in non-human primates (plasma, NMR 31P-1H HSQC); format: in vivo, cynomolgus monkeys (Macaca fascicularis)
Protocol: (§3) Adult male cynomolgus monkeys (Macaca fascicularis) with weight of 2.5-3.5 kg were used for PK studies (n = 1). To prepare HEX for injection, a stock solution of 150 mg/mL HEX in water with final pH of 7.2-7.4 was prepared. Just prior to injection, this stock was diluted with saline to desired concentration and filtered with 0.22 µm filter. A dose of 100 mg/Kg of HEX was injected subcutaneously in an overnight fasted monkey. Blood samples were collected at the following time points: before injection, 1 hr, 2 hrs, 4 hrs (when food was also given to a monkey), 8 hrs, and 24 hrs after injection. Also, a dose of 400 mg/Kg of HEX was administrated through oral gavage. To compare the PK studies in non-human primates with rodents, a 400 mg/kg dose of HEX was also injected subcutaneously in female mice (n = 1), and blood was collected before, 1 hr, and 2 hrs after injection. HEX concentrations in plasma were measured by using nuclear magnetic resonance (NMR) spectroscopy. Two hundred microliters of plasma were extracted with four hundred microliters of −20°C precooled methanol and incubated in −20°C for 45 minutes followed by spinning down in 4°C at 17,000 × g for 30 min to separate supernatant. The supernatant then was concentrated by speedvac for 4 hours and dissolved in 470 μL D2O (Sigma Aldrich,151882) and 30 μL D2O with 3%TPS as an internal standard (Sigma Aldrich, 450510) for NMR studies. NMR experiments were performed on Bruker Avance III HD 500 MHz spectrometer equipped with cryoprobe and Bruker 300 MHz with broad band observe probe. […] NMR spectra were analyzed using 3.1 version of TopSpin. HEX was quantified in the sample with high concentration of the drug (100 mpk, 1 hr after SC injection) by comparing integrals of HEX and TSP (reference) in 1H spectra. […]

[2] = Pharmacokinetics of HEX in mice (plasma, NMR 31P-1H HSQC); format: in vivo
Protocol: as §3

[3] = parameters: method as in Lin et al., 2020; conditions: cynomolgus monkeys, 100 mpk SC; replotted, ref Lin et al., 2020; cited from earlier work
[4] = system: P. falciparum K1 (chloroquine and sulfadoxine-pyrimethamine resistant); assay: Plasmodium falciparum growth inhibition assay, drug-resistant line K1; format: cell-based; conditions: K1, read-out: EC50 (nM), P. falciparum K1
Protocol: (§4) Banked blood (Saint Louis Children’s Hospital) and fresh blood [healthy donors] was washed and stored at 50% hematocrit at 4°C up to 1 month past the clinical expiration date and collection date, respectively. Parasite strains provided by the Malaria Research and Reference Reagent Resource Center (MR4) as follows: 3D7 (MRA-102); K1 (MRA-159); D10 (MRA-201); and IPC-5202 (MRA-1240). […]
(§5) Asynchronous cultures diluted to 1% parasitemia in 100μL wells were subjected to drug dilutions, solvent controls, and untreated uninfected erythrocyte controls in technical duplicates. Following a three-day incubation, DNA content was quantified using Picogreen (Life Technologies), as previously described ([Corbett et al., 2004]). Half-maximal effective concentrations (EC50) were determined from nonlinear regression of three biological replicates (GraphPad Prism). […]
(§6) Supplemental Table 5. […] Half-maximal inhibitor concentrations (EC50s) were determined for drug resistant malaria parasites and compared to the sensitive 3D7 strain. The respective EC50s are calculated from each of the independent biological replicates using a non-linear regression of the log of the inhibitor concentration with data from each technical replicate normalized to maximal and minimal growth using the software package GraphPad Prism. […]
(§7) means ± s.e.m calculated from three biological replicates.

[5] = system: P. falciparum D10 (mefloquine resistant); assay: Plasmodium falciparum growth inhibition assay, drug-resistant line D10; format: cell-based; conditions: D10, read-out: EC50 (nM), P. falciparum D10
Protocol: as §4, §5, §6, §7

[6] = system: P. falciparum IPC-5202 (chloroquine and artemisinin resistant); assay: Plasmodium falciparum growth inhibition assay, drug-resistant line IPC-5202; format: cell-based; conditions: read-out: EC50 (nM), P. falciparum IPC-5202
Protocol: as §4, §5, §6, §7

[7] = system: luciferase-expressing P. berghei ANKA parasites; assay: In vivo efficacy against blood stage parasite burden (luciferase imaging); parameters: species or system Swiss-Webster mice; conditions: i.p. daily for five days; 30mg/kg POM-HEX, 5mg/kg POM-SF
Protocol: as §2

[8] = parameters: method as in Lin et al., 2020; conditions: ref Lin et al., 2020; cited from earlier work

In the case of `O=C1C(P(=O)(O)O)CCCN1O` (stereo not drawn) [HEX], the “S.I. + pyruvate (Supplemental Table 4)” value (P. falciparum strain 3D7) is reported as 27.8, the “S.I. - pyruvate (Supplemental Table 4)” value (P. falciparum strain 3D7) is reported as 26.3 and the EC50 (P. falciparum strain 3D7; 3D7, read-out: Parasite EC50 - pyruvate) is reported as 19000 ± 1000 nM. The EC50 (P. falciparum strain 3D7; 3D7, read-out: half maximal effective concentrations (EC50s), parasite growth) was > 15000 nM, the “S.I. Fold Change (Supplemental Table 4)” value (P. falciparum strain 3D7) was 1.1 and the “T.I. Fold change” value (P. falciparum strain 3D7) was 1.1. For the same molecule, the “selectivity for antiparasitic activity over erythrocyte toxicity (in words)” value (P. falciparum strain 3D7; parasite growth versus MetHb formation) was “notably selective”, the “T.I. + pyruvate” value (P. falciparum strain 3D7) was 27.8 and the T.I. - pyruvate (P. falciparum strain 3D7) was 26.3. For the same molecule, the EC50 (human erythrocytes; read-out: MetHb EC50 + pyruvate (Supplemental Table 4)) was > 500000 nM, the EC50 (human erythrocytes; read-out: MetHb EC50 - pyruvate) was > 500000 nM and the EC50 (human erythrocytes; read-out: MetHb EC50 - pyruvate (Supplemental Table 4)) was > 500000 nM. The survival (P. berghei ANKA; HEX 100 mg/kg daily from day 2, Mantel-Cox) was 14 days, the parasitemia (P. berghei ANKA; d4, blood smear Giemsa, treated from day 2, HEX 100 mg/kg, 2DG 200 mg/kg, control 7.8±3.3%) was 3.5±1.3% and the “clinical scores (signs of cerebral malaria)” value (P. berghei ANKA; d6, HEX 100 mg/kg, vehicle 15.0±7.3) was 3.8±2.0. For the same molecule, the “mice alive on day 15” value (P. berghei ANKA; n=5, HEX 100 mg/kg, sacrificed due to high parasitemia and elevated clinical score) was “two mice remained alive”, the half-life ([1]; monkey, 100 mg/kg sub-cutaneous, serum/plasma, 100 mg/kg) was ~ 1 hr and the “oral bioavailability (in words)” value ([1]; monkey, 400 mpk by oral gavage) was “orally bioavailable”. The “time serum concentrations remain above the in vitro EC50 concentrations against Plasmodium” value ([1]; non-human primates, 100mg/kg sub-cutaneous) was “at least four hours”, the “HEX concentration in plasma, 2 hr time point” value ([2]; 400 mg/kg dose SC, detection limit ~1 µM) was “undetectable” and the serum half-life ([2]; 400mg/kg sub-cutaneous) was “minutes”. The concentration at 1 hr ([2]; female, mouse, plasma, 400 mg/kg dose SC, read-out: HEX concentration in plasma, 1hr after injection) was ~170 µM and the “plasma concentrations at 1hr” value [3] was > 500 µM.
With `CC(C)(C)C(=O)OCOP(=O)(OCOC(=O)C(C)(C)C)C1CCCN(O)C1=O` (stereo not drawn) [POM-HEX] the “S.I. + pyruvate (Supplemental Table 4)” value (P. falciparum strain 3D7) was 1.5, the “S.I. - pyruvate (Supplemental Table 4)” value (P. falciparum strain 3D7) was 0.4 and the EC50 (P. falciparum strain 3D7; 3D7, 72 h, P. falciparum growth, presence of 1mM pyruvate, mean ± s.e.m., read-out: Parasite EC50 + pyruvate) was 910 ± 150 nM. The EC50 (P. falciparum strain 3D7; 3D7, P. falciparum growth, absence of 1mM pyruvate, mean ± s.e.m., 500 = highest concentration tested, EC50 not resolved, read-out: Parasite EC50 - pyruvate) was 2900 ± 640 nM, the “S.I. Fold Change (Supplemental Table 4)” value (P. falciparum strain 3D7) was 3.7 and the “T.I. Fold change” value (P. falciparum strain 3D7) was 3.7. For the same molecule, the “T.I. + pyruvate” value (P. falciparum strain 3D7) was 1.5, the T.I. - pyruvate (P. falciparum strain 3D7) was 0.4 and the EC50 [4] was 1110 ± 530 nM. It also gave an EC50 [5] of 1430 ± 540 nM, an EC50 [6] of 966 ± 442 nM and an EC50 (human erythrocytes; MetHb formation, absence of 1mM pyruvate, mean ± s.e.m., 500 = highest concentration tested, EC50 not resolved, read-out: MetHb EC50 - pyruvate) of 1200 ± 190 nM. For the same molecule, the EC50 (human erythrocytes; MetHb formation, presence of 1mM pyruvate, mean ± s.e.m., 500 = highest concentration tested, EC50 not resolved, read-out: MetHb EC50 + pyruvate) was 1400 ± 110 nM, the “effect on clinical score, overall survival, cerebral malaria (in words)” value (P. berghei ANKA; 2DG 200 mg/kg, POM-HEX 30 mg/kg) was “no more effective than 2-DG; also recorded: does not prevent cerebral malaria” and the “effect on parasite burden (in words)” value [7] was “does not forestall a lethal parasite burden”. For the same molecule, the “conversion in mouse plasma (in words)” value [8] was “rapidly converted to Hemi-POM-HEX”.
